Assay results from patent US20230088644A1, “COMPOSITION FOR INDUCING DIFFERENTIATION INTO INSULIN-PRODUCING CELLS, AND USE THEREOF” (SEOUL NATIONAL UNIVERSITY R&DB FOUNDATION, priority 2020, published 2023).
Read-outs that look alike come from different tables or passages of the source.

What was measured:
[1] = test system: mouse bone marrow cells; test: Differentiation of mouse bone marrow cells into insulin-producing cells, RT-PCR / quantitative real-time PCR; assay type: cell-based; details: for insulin expression compared to the control: 10 mM each, 6 days, DMEM
Protocol: Mouse bone marrow cells were isolated from 8-week-old male C57BL/6 mice (Orientbio Inc.) in the same manner as in Example 1.1. Bone marrow cells in DMEM culture medium (Dulbecco's Modified Eagle's Medium) (standard medium) containing 5.5 mM glucose, 10% FBS, and 1% antibiotics were seeded at 5×10^6 cells/ml into a 12-well non-coated plate, treated with glucosamine (GlcN) and putrescine (Put) to a concentration of 10 mM each or together, and cultured for 6 days in suspension for differentiation.
To investigate whether or not insulin-producing cells appeared, the gene expression levels of insulin (INS), MAFA, PDX-1, and NEUROG3 were measured by a quantitative real-time PCR method, as in the method of Example 1.2, which are shown in FIG. 3.
(§1) Samples were divided into (1) putrescine alone-treated group (5 mM), (2) putrescine (5 mM) and glucosamine (5 mM)-co-treated group, (3) putrescine (5 mM), glucosamine (5 mM), and nicotinamide (10 mM)-co-treated group, and (4) control (non-treated group). Umbilical cord blood cells (prepared in the same manner as in Example 1.3) and mouse bone marrow cells (prepared in the same manner as in Example 1.1) were cultured in suspension to induce the differentiation into insulin-producing cells.
(§2) On day 6 after priming the umbilical cord blood cells or mouse bone marrow cells for differentiation, total RNA was extracted to perform quantitative real-time PCR, similarly to the method of Example 1.2, and the mRNA expression of insulin and beta cell differentiation-related genes (MAFA, PDX1, or NEUROG3) was determined, as shown in FIGS. 4 (in primed umbilical cord blood cells) and 5 (in primed mouse bone marrow cells).

[2] = test system: human umbilical cord blood cells; assay type: cell-based
Protocol: Umbilical cord blood-derived mononuclear cells were freshly isolated using Ficoll-gradient protocol and suspended in a lysis solution (BD Pharmingen) to remove red blood cells.
Differentiation was induced by treating (priming) with putrescine in the same manner as in the method of Example 1.2, except that putrescine was added to a concentration of 1 mM or 5 mM, and the gene expression levels for insulin (INS) and factors (MAFA, NEUROG3) that promote the differentiation into insulin-producing beta cells were measured by performing quantitative real time PCR in the same manner as in the method of Example 1.2.
as §1, §2
Umbilical cord blood cells were isolated in the same manner as in Example 1.3, and the differentiation effect on culture medium was determined. […] On day 6 after the culture, the expression levels of genes were compared in the cells in which differentiation was induced in the DMEM or CMRL1066 culture medium, respectively, using RT-PCR and quantitative real-time PCR. The conditions for quantitative real-time PCR were the same as in Example 1.2, and RT-PCR was performed with the following steps; 1) initial denaturation of 94° C. for 5 minutes; 2) amplification of 94° C. for 30 seconds, 60° C. for 30 seconds, and 72° C. for 1 minute by repeating the cycle 30 times; 3) final extension of 72° C. for 10 minutes.
Cells were collected on day 6 after the culture to confirm the appearance of insulin-producing cells.

[3] = test system: human bone marrow cells; details: 5 mM putrescine, 6 days, DMEM; compared to control without putrescine
[4] = test system: umbilical cord blood cells; test: Insulin secretion of differentiated umbilical cord blood cells, insulin ELISA; details: BP-1-102 added on day 4; primed 6 days, then 3 days in CMRL1066 with 11 mM glucose; supernatant ELISA
[5] = added to 5 mM putrescine, 5 mM glucosamine, 10 mM nicotinamide in CMRL1066, JSI-124 0.1 μM, CPT 1 μM, BP-1-102 10 μM, day 6

NCCCCN [putrescine, 1,4-diaminobutane]
insulin expression compared to the control [1]: 4.3 fold | mRNA expression of beta cell-specific genes (INS, MAFA, and NEUROG3) ([2]; 5 mM putrescine, 6 days, DMEM, compared to control cells without putrescine): significantly increased | gene expression levels for insulin and the factors that promote the beta cell differentiation ([2]; putrescine at a concentration of 5 mM or more (0.1 to 20 mM tested), 6 days): significantly increased | mRNA expression of insulin (INS), MAFA, PDX1, and NEUROG3 [3]: significantly increased

N[C@H]1C(O)O[C@H](CO)[C@@H](O)[C@@H]1O (stereo partly drawn) [glucosamine]
insulin expression compared to the control [1]: 2 fold

CC(C)(O)/C=C/C(=O)[C@](C)(O)C1[C@H](O)C[C@@]2(C)[C@@H]3CC=C4C(C=C(O)C(=O)C4(C)C)[C@]3(C)C(=O)C[C@]12C (stereo partly drawn) [JSI-124]
mRNA expression levels of insulin (INS) and beta cell differentiation-related genes (PDX1, NEUROG3, or NEUROD1) ([1]; 100 nM added on day 4 after the culture, compared to treatment at other time points (day 0, 2)): significantly increased | expression levels of genes promoting differentiation into insulin-producing cells ([1]; STAT3 inhibitor 100 nM added on day 0, 2 or 4 to glucosamine, putrescine and nicotinamide in CMRL 1066, collected day 6): increased | mRNA expression levels of insulin and beta cell differentiation-related genes, order among STAT3 inhibitors [2, 5]: significantly increased in the order of CPT <JSI-124<BP-1-102

C[C@H]1COC2=C1C(=O)C(=O)c1c2ccc2c1CCCC2(C)C [CPT]
mRNA expression levels of insulin and beta cell differentiation-related genes, order among STAT3 inhibitors [2, 5]: significantly increased in the order of CPT <JSI-124<BP-1-102

CN(CC(=O)N(Cc1ccc(C2CCCCC2)cc1)c1ccc(C(=O)O)c(O)c1)S(=O)(=O)c1c(F)c(F)c(F)c(F)c1F [BP-1-102]
mRNA expression levels of insulin and beta cell differentiation-related genes, order among STAT3 inhibitors [2]: significantly increased in the order of CPT <JSI-124<BP-1-102 | mRNA expression of insulin compared to treatment only with glucosamine, putrescine, and nicotinamide [2]: ≥ 3 fold | insulin secretion compared to only three differentiation-inducing factors (glucosamine, putrescine, and nicotinamide) [4]: ≥ 10 fold
